Data taken from Sander's compilation of Henry's law constants.
Values joined by “and” are separate entries in the source; they are usually repeats but may differ in a detail not shown here. Equal values may be shown once. Blank lines part the entries; values can stand above or below the molecule they belong to.

Assay: Henry solubility constant Hcp at 298.15 K (mol/(m3 Pa))
[1] = reference: McFall et al. (2020)
[2] = reference: Cetin and Odabasi (2005)
[3] = reference: Murphy et al. (1983a)
[4] = reference: Schuhfried et al. (2015)
[5] = reference: Christie and Crisp (1967)
[6] = reference: Butler et al. (1935)
[7] = reference: Krause and Benson (1989)
[8] = reference: Morrison and Johnstone (1954)
[9] = reference: von Antropoff (1910)
[10] = reference: Kawamoto and Urano (1989)
[11] = reference: Shunthirasingham et al. (2013)
[12] = reference: Rochester and Symonds (1973)
[13] = reference: Dohnal and Fenclová (1995)
[14] = reference: Miguel et al. (2000)

Structure (SMILES): CCCCO[N+](=O)[O-] [1-butyl nitrate]
Henry solubility constant Hcp (reference: Hauff et al. (1998)): 0.0063 | Henry solubility constant Hcp (reference: Luke et al. (1989)): 0.01

Structure (SMILES): ClC1=C(Cl)C(Cl)(Cl)C(Cl)=C1Cl [hexachlorocyclopentadiene]
Henry solubility constant Hcp (reference: Warner et al. (1980)): 0.0006 | Henry solubility constant Hcp (reference: Wolfe et al. (1982)): 0.00037

Structure (SMILES): FC(F)(F)C(F)(F)C(Cl)Cl [3,3-dichloro-1,1,1,2,2-pentafluoropropane]
Henry solubility constant Hcp (reference: Kutsuna (2013)): 9.8e-05

Henry solubility constant Hcp (reference: Khan and Brimblecombe (1992)): 21 | Henry solubility constant Hcp (reference: Khan et al. (1995)): 23 | Henry solubility constant Hcp (reference: Kim and Kim (2016)): 24 | Henry solubility constant Hcp (reference: von Hartungen et al. (2004)): 12
Structure (SMILES): CCCCC(=O)O [pentanoic acid]

Henry solubility constant Hcp (reference: Fenclová et al. (2010)): 0.54
Structure (SMILES): CC(C)C(C)O (stereo not given) [3-methyl-2-butanol]

Henry solubility constant Hcp [1]: 9.2
Structure (SMILES): C=CCc1ccc(O)c(OC)c1 [2-methoxy-4-(2-propenyl)-phenol]

Henry solubility constant Hcp (reference: Jönsson et al. (1982)): 5.9e-06 | Henry solubility constant Hcp (reference: Park et al. (1997)): 7.4e-06 | Henry solubility constant Hcp (reference: Tsonopoulos and Wilson (1983)): 6.7e-06
Structure (SMILES): CCCCCC [hexane]

Structure (SMILES): Brc1ccc(Oc2ccc(Br)cc2Br)c(Br)c1 [2,2',4,4'-tetrabromodiphenyl ether]
Henry solubility constant Hcp [2]: 0.87 | Henry solubility constant Hcp (reference: Charles and Destaillats (2005)): 0.17 | Henry solubility constant Hcp (reference: Long et al. (2017)): 0.91

Henry solubility constant Hcp (reference: Lei et al. (2004)): 0.00017 | Henry solubility constant Hcp (reference: Wu and Chang (2011)): 0.0002
Structure (SMILES): OCCC(F)(F)C(F)(F)C(F)(F)C(F)(F)C(F)(F)C(F)(F)C(F)(F)C(F)(F)F [1H,1H,2H,2H-perfluorodecan-1-ol]

Henry solubility constant Hcp (reference: Ioffe et al. (1984)): 0.052
Structure (SMILES): CCC(=O)OC [methyl propanoate]

Henry solubility constant Hcp (reference: Copolovici and Niinemets (2005)): 0.00018
Structure (SMILES): C=C1C=CC(C(C)C)CC1 (stereo not drawn) [β-phellandrene]

Henry solubility constant Hcp [3]: 0.016
Structure (SMILES): Clc1ccc(Cl)c(-c2c(Cl)cc(Cl)c(Cl)c2Cl)c1 [2,2',3,4,5',6-hexachlorobiphenyl]

Structure (SMILES): CF [fluoromethane]
Henry solubility constant Hcp (reference: Glew and Moelwyn-Hughes (1953)): 0.00058 | Henry solubility constant Hcp (reference: Swain and Thornton (1962)): 0.00058

Henry solubility constant Hcp [4]: 8.1e-06
Structure (SMILES): C=C/C(C)=C/C/C=C(\C)CCC=C(C)C [α-farnesene]

Structure (SMILES): CN(C)C [trimethylamine]
Henry solubility constant Hcp (reference: Amoore and Buttery (1978)): 0.076 | Henry solubility constant Hcp [5]: 0.095 | Henry solubility constant Hcp (reference: Leng et al. (2015a)): 0.084

Henry solubility constant Hcp (reference: Alaee et al. (1996)): 0.2 | Henry solubility constant Hcp (reference: Bamford et al. (1999b)): 0.15 | Henry solubility constant Hcp (reference: Reza and Trejo (2004)): 0.23 | Henry solubility constant Hcp (reference: Southworth (1979)): 0.15 | Henry solubility constant Hcp (reference: Webster et al. (1985)): 0.27
Structure (SMILES): c1ccc2cc3ccccc3cc2c1 [anthracene]

Structure (SMILES): CC(C)CO [2-methyl-1-propanol]
Henry solubility constant Hcp [6]: 0.83 | Henry solubility constant Hcp (reference: Snider and Dawson (1985)): 1

Structure (SMILES): CCCC(C)O[N+](=O)[O-] (stereo not given) [2-pentyl nitrate]
Henry solubility constant Hcp (reference: Hauff et al. (1998)): 0.0037

Henry solubility constant Hcp (reference: Lee et al. (2013)): 0.29
Structure (SMILES): N#Cc1ccccc1 [benzenenitrile]

Henry solubility constant Hcp [1]: 8.6 | Henry solubility constant Hcp (reference: Sagebiel et al. (1992)): 7.7 and 9.1 | Henry solubility constant Hcp (reference: Wieland et al. (2015)): 9
Structure (SMILES): COc1ccccc1O [1-hydroxy-2-methoxybenzene]

Henry solubility constant Hcp (reference: Chai et al. (2005)): 0.086 | Henry solubility constant Hcp (reference: Hovorka et al. (2019)): 0.099 | Henry solubility constant Hcp (reference: Straver and de Loos (2005)): 0.11
Structure (SMILES): CCCCC(C)=O [2-hexanone]

Henry solubility constant Hcp (reference: Zin et al. (2016)): 0.001
Structure (SMILES): CC(C)CS [2-methyl-1-propanethiol]

Henry solubility constant Hcp (reference: Fichan et al. (1999)): 0.00087 | Henry solubility constant Hcp [4]: 0.00036
Structure (SMILES): C=CC(=C)CCC=C(C)C [7-methyl-3-methylene-1,6-octadiene]

Structure (SMILES): O=CC(=O)O [oxoethanoic acid]
Henry solubility constant Hcp (reference: Ip et al. (2009)): 110

Structure (SMILES): C=COC(C)=O [ethenyl ethanoate]
Henry solubility constant Hcp (reference: Böhme et al. (2008)): 0.02

Henry solubility constant Hcp (reference: Wittig et al. (2001)): 0.019
Structure (SMILES): CCCCOC=O [butyl methanoate]

Structure (SMILES): C[CH2][Pb]([CH2]C)([CH2]C)[CH2]C [tetraethyl lead]
Henry solubility constant Hcp (reference: Feldhake and Stevens (1963)): 1.3e-05

Henry solubility constant Hcp (reference: Crovetto et al. (1982)): 4.2e-05 | Henry solubility constant Hcp [7]: 4.3e-05 | Henry solubility constant Hcp [8]: 4.2e-05 | Henry solubility constant Hcp [9]: 4.4e-05
Structure (SMILES): [Xe] [xenon]

Structure (SMILES): CCCC [butane]
Henry solubility constant Hcp (reference: Ben-Naim and Battino (1985)): 1.2e-05 | Henry solubility constant Hcp (reference: Carroll et al. (1997)): 1.3e-05 | Henry solubility constant Hcp (reference: McAuliffe (1963)): 1.1e-05 | Henry solubility constant Hcp (reference: Morrison and Billett (1952)): 1.1e-05 | Henry solubility constant Hcp (reference: Wetlaufer et al. (1964)): 1.3e-05

Henry solubility constant Hcp (reference: Hawthorne et al. (1985)): 0.99
Structure (SMILES): Cc1ccnc(C)c1 [2,4-dimethylpyridine]

Henry solubility constant Hcp [10]: > 8.1
Structure (SMILES): O=[N+]([O-])c1ccc(Oc2c(Cl)cc(Cl)cc2Cl)cc1 [2,4,6-trichlorophenyl 4-nitrophenyl ether]

Structure (SMILES): CCCCc1ccccc1 [butylbenzene]
Henry solubility constant Hcp (reference: Perlinger et al. (1993)): 0.00062

Henry solubility constant Hcp (reference: Lei et al. (2007)): 0.19 | Henry solubility constant Hcp [11]: 0.21 | Henry solubility constant Hcp (reference: Wu et al. (2022a)): 0.17
Structure (SMILES): CCCCCCCCO [1-octanol]

Structure (SMILES): ClN(Cl)Cl [nitrogen trichloride]
Henry solubility constant Hcp (reference: Holzwarth et al. (1984)): 0.00099

Henry solubility constant Hcp (reference: Buttery et al. (1965)): 0.075
Structure (SMILES): CCCCCCCC=O [octanal]

Structure (SMILES): COC(=O)C(F)(F)F [trifluoroethanoic acid, methyl ester]
Henry solubility constant Hcp (reference: Kutsuna et al. (2004)): 0.0012

Structure (SMILES): CN(C)c1nc(=O)n(C2CCCCC2)c(=O)n1C [hexazinone]
Henry solubility constant Hcp (reference: Mabury and Crosby (1996)): > 99

Structure (SMILES): CCCCCCO[N+](=O)[O-] [1-hexyl nitrate]
Henry solubility constant Hcp (reference: Hauff et al. (1998)): 0.0076

Henry solubility constant Hcp [1]: 4.3
Structure (SMILES): CCCc1ccc(O)c(OC)c1 [4-propylguaiacol]

Structure (SMILES): OCC(F)(F)C(F)(F)F [2,2,3,3,3-pentafluoro-1-propanol]
Henry solubility constant Hcp (reference: Chen et al. (2003)): 0.14 | Henry solubility constant Hcp [12]: 0.45

Henry solubility constant Hcp (reference: Wasik and Tsang (1970)): 0.0016
Structure (SMILES): [2H]c1c([2H])c([2H])c([2H])c([2H])c1[2H] [benzene-d6]

Henry solubility constant Hcp (reference: Muccitelli and Wen (1978)): 7.9e-06
Structure (SMILES): [2H][2H] [deuterium]

Structure (SMILES): O=[N+]([O-])c1ccccc1O [2-nitrophenol]
Henry solubility constant Hcp (reference: Guo and Brimblecombe (2007)): 1.4 | Henry solubility constant Hcp (reference: Harrison et al. (2002)): 0.83 | Henry solubility constant Hcp (reference: Müller and Heal (2001)): 0.89

Structure (SMILES): Brc1cc(Br)c(Oc2cc(Br)c(Br)cc2Br)cc1Br [2,2',4,4',5,5'-hexabromodiphenyl ether]
Henry solubility constant Hcp [2]: 3.5 | Henry solubility constant Hcp (reference: Long et al. (2017)): 3.7

Henry solubility constant Hcp [5]: 0.37
Structure (SMILES): CCCCCCN [1-hexanamine]

Henry solubility constant Hcp [13]: 7.5
Structure (SMILES): Cc1ccc(C)c(O)c1 [1-hydroxy-2,5-dimethylbenzene]

Structure (SMILES): CC(CCl)OC(C)CCl (stereo not given) [bis-(2-chloroisopropyl) ether]
Henry solubility constant Hcp [10]: 0.42

Structure (SMILES): OCOO [hydroxymethyl hydroperoxide]
Henry solubility constant Hcp (reference: O’Sullivan et al. (1996)): 16000 | Henry solubility constant Hcp (reference: Staffelbach and Kok (1993)): 16000 | Henry solubility constant Hcp (reference: Zhou and Lee (1992)): 4700

Structure (SMILES): ClCC(Cl)CCl [1,2,3-trichloropropane]
Henry solubility constant Hcp (reference: Tancrède and Yanagisawa (1990)): 0.044

Henry solubility constant Hcp [13]: 12 | Henry solubility constant Hcp (reference: Feigenbrugel et al. (2004b)): 7.9
Structure (SMILES): Cc1cccc(O)c1 [1-hydroxy-3-methylbenzene]

Henry solubility constant Hcp (reference: Cady et al. (1922)): 3.7e-06 | Henry solubility constant Hcp (reference: Friedman (1954)): 3.8e-06 | Henry solubility constant Hcp [7]: 3.9e-06 | Henry solubility constant Hcp (reference: Lannung (1930)): 3.8e-06 | Henry solubility constant Hcp [8]: 3.7e-06 | Henry solubility constant Hcp [9]: 6.3e-06
Structure (SMILES): [He] [helium]

Henry solubility constant Hcp [12]: 0.24
Structure (SMILES): OC(C(F)(F)F)C(F)(F)F [1,1,1,3,3,3-hexafluoro-2-propanol]

Henry solubility constant Hcp [13]: 16
Structure (SMILES): Cc1cc(C)cc(O)c1 [1-hydroxy-3,5-dimethylbenzene]

Henry solubility constant Hcp (reference: Buttery et al. (1971)): 2
Structure (SMILES): CC(C)Cc1cnccn1 [2-isobutylpyrazine]

Structure (SMILES): Clc1cc(-c2ccc(Cl)c(Cl)c2Cl)cc(Cl)c1Cl [2,3,3',4,4',5'-hexachlorobiphenyl]
Henry solubility constant Hcp [3]: 0.017

Henry solubility constant Hcp (reference: Anderson (2011)): 0.00068 | Henry solubility constant Hcp (reference: Kutsuna (2017)): 0.00064 | Henry solubility constant Hcp (reference: Maaßen (1995)): 0.00069 | Henry solubility constant Hcp [14]: 0.0003 | Henry solubility constant Hcp (reference: Reichl (1995)): 0.00069
Structure (SMILES): FCF [difluoromethane]

Structure (SMILES): FC(F)C(F)(F)F [pentafluoroethane]
Henry solubility constant Hcp [14]: 0.00031 | Henry solubility constant Hcp (reference: Reichl (1995)): 3.5e-05

Henry solubility constant Hcp [6]: 0.78 | Henry solubility constant Hcp (reference: Gupta et al. (2000)): 0.95 | Henry solubility constant Hcp (reference: Lei et al. (2007)): 0.75 | Henry solubility constant Hcp [11]: 0.81
Structure (SMILES): CCCCCO [1-pentanol]
